Source: patent US20140344996A1, “METHODS AND MEANS TO PRODUCE ABIOTIC STRESS TOLERANT PLANTS” (VIB VZW, priority 2011, published 2014)

Assays:
Type in all cases: in vivo, Arabidopsis thaliana
Arabidopsis seedlings [1] = assay: Leaf growth of Arabidopsis seedlings in vitro after transfer to Dex medium; details: 5 μM Dexamethasone in ½ MS medium, transfer at 9DAS
Protocol: Seedlings were grown in vitro on half-strength Murashige and Skoog medium (Murashige and Skoog 1962) containing 1% sucrose and 6.5 g/L agar at 21° C. under a 16-hour day (110 μmol m^−2 s^−1) and 8-hour night regimen. The growth medium was overlaid with nylon mesh (Prosep, Zaventem, Belgium) of 20 μm pore size to facilitate transfer to induction medium. For expression analysis and growth experiments, 64 resp. 32 seeds were equally distributed on a 15-cm diameter petri dish. […] At 9DAS, when the third leaf is fully proliferating, the mesh with seedlings was transferred to plates containing ½ MS medium with 5 μM Dexamethasone (Dex). For expression analysis and growth experiments, all seedlings were transferred to Dex, including the control lines, to account for the possible effects of Dex on growth or gene expression. […] Here, the non-treated plants will serve as a control for the Dex-induced plants of the same line. […] Growth analysis was performed on the third true leaf harvested at different time points after transfer to Dex. After clearing with 70% ethanol, leaves were mounted in lactic acid on microscopic slides. […] Photographs of leaves and drawings were used to measure leaf area and cell size, respectively, using ImageJ v1.37o (NIH; on the World Wide Web at //rsb.info.nih.gov/ij/), and from these cell numbers were calculated by dividing leaf area with cell area.

Arabidopsis seedlings [2] = assay: Gene expression in the third leaf after transfer to Dex medium; details: 5 μM Dexamethasone in ½ MS medium, transfer at 9DAS
Protocol: At 9DAS, when the third leaf is fully proliferating, the mesh with seedlings was transferred to plates containing ½ MS medium with 5 μM Dexamethasone (Dex). For expression analysis and growth experiments, all seedlings were transferred to Dex, including the control lines, to account for the possible effects of Dex on growth or gene expression. […] Here, the non-treated plants will serve as a control for the Dex-induced plants of the same line. […] Leaf 3 was harvested from plants at 1, 2, 4 and 24 hours after transfer. Samples were obtained from three independent experiments and from multiple plates within the experiment. Whole seedlings were harvested rapidly in an excess of RNAlater solution (Ambion) and, after overnight storage at 4° C., dissected under a binocular microscope on a cooling plate with precision microscissors. Dissected leaves were transferred to a new tube, frozen in liquid nitrogen, and ground with a Retsch machine and 3-mm metal balls. RNA was extracted with TriZol (Invitrogen) and further purified with the RNEASY® Mini Kit (Qiagen). DNA digestion was done on-column with Rnase-free DNase I (Roche). […] Melting curves were analyzed to check primer specificity. […] Ct refers to the number of cycles at which SYBR Green fluorescence reaches an arbitrary value during the exponential phase of the cDNA amplification.

[3] = test system: Arabidopsis wild-type plants; assay: Growth of the third leaf under mild osmotic stress (mannitol); details: wild-type line, transfer at 9DAS to medium with 25 mM Mannitol
Protocol: It was opted to study growing plants upon exposure to mild stress, not threatening plant survival but only reducing plant growth by an average of 50%. For loss-of-function analysis, the double erf5/erf6 T-DNA insertion mutant and a wild-type line were grown on control medium until 9DAS and then transferred to growth medium containing 25 mM of the osmoticum Mannitol. Subsequently, upon transfer, growth of the third leaf was measured.
Seedlings were grown in vitro on half-strength Murashige and Skoog medium (Murashige and Skoog 1962) containing 1% sucrose and 6.5 g/L agar at 21° C. under a 16-hour day (110 μmol m^−2 s^−1) and 8-hour night regimen. The growth medium was overlaid with nylon mesh (Prosep, Zaventem, Belgium) of 20 μm pore size to facilitate transfer to induction medium. For expression analysis and growth experiments, 64 resp. 32 seeds were equally distributed on a 15-cm diameter petri dish. […]
Growth analysis was performed on the third true leaf harvested at different time points after transfer to Dex. […] Photographs of leaves and drawings were used to measure leaf area and cell size, respectively, using ImageJ v1.37o (NIH; on the World Wide Web at //rsb.info.nih.gov/ij/), and from these cell numbers were calculated by dividing leaf area with cell area.

Row | SMILES | effect on growth (Arabidopsis seedlings [1]) | effect on gene expression (Arabidopsis seedlings [2]) | growth of the third leaf [3]
1 | C[C@@H]1C[C@H]2[C@@H]3CCC4=CC(=O)C=C[C@]4(C)[C@@]3(F)[C@@H](O)C[C@]2(C)[C@@]1(O)C(=O)CO [Dex, Dexamethasone] | no effect | no effect | –
2 | OC[C@@H](O)[C@@H](O)[C@H](O)[C@H](O)CO [Mannitol] | – | – | expected growth reduction
